The data set in a line: in vitro. Conditions: human, hela cells, % viability.

On to `Cc1ccc(S(=O)(=O)N(CC(=O)Nc2cccnc2)c2ccc(F)cc2)cc1` [CBK263968], for which the viability at 28.5 h, 10 µM was found to be 85.6%.
Still for that read-out and setting: in the case of `O=S1(=O)N=C(Nc2ccc(S(=O)(=O)N3CCOCC3)cc2)c2ccccc21` [CBK269116] it was 91%; in that of `O=C(Nc1ccc(F)cc1)N1Cc2nc[nH]c2C[C@H]1c1nc(-c2ccc(F)cc2)no1` [CBK288970], 95%.
The same measure, in the same setting: the figure for `CN1CC(=O)N2CCOC(C2)c2cccc(n2)NC(=O)C/C=C/CC2(CCNCC2)C1=O` (stereo not drawn) [CBK292053] is 102%; for `C[N+]1([O-])CCN(c2nccn(CCOc3cc(F)c(F)cc3F)c2=O)CC1` [CBK081593] it is 101%; for `c1ccc(Cn2cc(-c3cncn3CCCN3CCCCC3)cn2)cc1` [CBK281491] it is 91.4%.
On the same count and under the same terms, in the case of `COc1ccc(Cl)cc1NC(=O)CN(c1cc(C(F)(F)F)ccc1Cl)S(C)(=O)=O` [CBK264724] it was 82.5%; in that of `COCCn1ccc(NC(=O)N2CCCC(c3cc(F)ccc3F)C2)n1` (stereo not drawn) [CBK305451], 79.6%; in that of `C[C@@H](Cn1nnc2ccccc21)NC(=O)Cc1ccccc1F` [CBK282305], 86.1%.
For `CC(C)Nc1cc(SCc2cccc(C(F)(F)F)c2)ncn1` [CBK107161], the viability at 28.5 h, 10 µM was found to be 88.2%.
On the same count and under the same terms, in the case of `O=C(NC1CCCCC1)NS(=O)(=O)c1ccc(CCNC(=O)c2cccs2)cc1` [CBK011888] it was 86.3%; in that of `CCC(C(=O)N1CCC(O)(c2ccccn2)CC1)c1ccccc1` (stereo not drawn) [CBK283768], 93.1%; in that of `O=C(CN1C(=O)[C@@H]2CCCN2c2ncccc21)NC1CCCCC1` [CBK286204], 116%.
On the same count and under the same terms, the figure for `Cc1ccc(CN[C@@H]2CCC(=O)N[C@H]2c2cc(F)cc(F)c2)o1` [CBK283128] is 97.9%.
For the molecule `Cc1ccc(OP(=O)(NCCN2CCOCC2)Oc2ccc(C)cc2)cc1` [CBK261802], the viability at 28.5 h, 10 µM (bulk resorufin, single well) was found to be 107%.
Take `O=C(O)c1cccc(NS(=O)(=O)Cc2ccccc2)c1` [CBK038894]: the viability at 28.5 h, 10 µM stood at 96.4%.
The same measure, in the same setting: in the case of `CCCC/C=C/c1cncc(N2CCN(C(=O)c3ccco3)CC2)n1` [CBK037918] it was 91.3%.
The same measure, in the same setting: the figure for `Cc1nc(Cl)c(C(=O)NCCc2ccc(S(=O)(=O)NC(=O)NC3CCCCC3)cc2)nc1C` [CBK011777] is 91.3%; for `O=[N+]([O-])c1ccc(CN2CCN(Cc3c[nH]c4ccccc34)CC2)cc1` [CBK218620] it is 92.3%; for `CN1CCN(c2nc(-c3ccc4c(c3)CCCC(=O)N4)cs2)CC1` [CBK305600] it is 98.6%.
On the same count and under the same terms, in the case of `c1ccc(CN(Cc2ccccc2)Cn2c3ccccc3c3ccccc32)cc1` [CBK263575] it was 93.6%; in that of `O=c1[nH]c2ccccc2nc1-c1cc(Br)ccc1NCc1ccccc1` [CBK088071], 106%; in that of `O=c1ccc2cccc(OCCO)c2o1` [CBK149730], 105%.
Regarding `O=S(=O)(c1cccc2nonc12)N1CCCCCC1` [CBK265627], the viability at 28.5 h, 10 µM is 102%.
The same measure, in the same setting: in the case of `CCOc1ccc2c(c1)C(=O)c1cc(OCC(=O)O)ccc1-2` [CBK286693] it was 94.3%; in that of `O=C(COc1nc2ccccc2s1)N1N=CCC1c1ccccc1` (stereo not drawn) [CBK270188], 92.7%.
Consider `O=C(Cn1cncn1)c1ccc2c(c1)CCO2` [CBK020087], for which the viability at 28.5 h, 10 µM stood at 93.5%.
In the case of `CCn1nc(C)c(-c2cncn2CCn2nc(C)c(Cl)c2C)c1C` [CBK281768], the viability at 28.5 h, 10 µM was determined as 90.4%.
The same measure, in the same setting: the figure for `Cc1cnccc1-c1cn(C)nc1-c1ccc(CNC(=O)c2cccc(N(C)C)c2)cc1` [CBK285633] is 86.5%.
Same read-out and setting: the figure for `Cc1ccccc1Sc1cccc(C(F)(F)F)n1` [CBK115243] is 103%.
Still for that read-out and setting: in the case of `COc1ccc([C@@]23CC[C@@H](NC(=O)Nc4ccc(F)cc4)C[C@@H]2N(C)CC3)cc1OC` [CBK036458T] it was 93.5%.
For the molecule `CC(C)(N)C(=O)N1CCC2(CC1)OCc1cc(-c3ccc(S(C)(=O)=O)nc3)ccc1O2` [CBK160868], the viability at 28.5 h, 10 µM (bulk resorufin, single well) is 93.3%.
Consider `C[S+]([O-])CCn1c2ccccc2c2c(N3CCCC3)nc(N3CCCC3)nc21` (stereo not drawn) [CBK017586], for which the viability at 28.5 h, 10 µM stood at 91.9%.
The same measure, in the same setting: the figure for `Cc1ccc(S(=O)(=O)Nc2cccc(NC(=O)c3ccco3)c2)cc1C(=O)O` [CBK296638] is 105%; for `O=C(CCn1cccn1)Nc1ccc(OC2CCCC2)cc1` [CBK281861] it is 87.1%.
On the same count and under the same terms, in the case of `O=S(=O)(NCCc1ccncc1)c1ccc(Cl)c(Cl)c1` [CBK044438] it was 97.9%; in that of `CC(=O)NCC1OCCc2ccccc21` (stereo not drawn) [CBK026449], 98.4%; in that of `Cc1nc2n(CC#N)c3ccccc3n2n1` [CBK062670], 99.7%.
Same read-out and setting: in the case of `FC(F)(F)Oc1ccc(CNc2nccnc2-c2cccs2)cc1` [CBK036806] it was 100%; in that of `O=c1scnn1Cc1nc(-c2ccsc2)no1` [CBK306438], 83.4%.
As for `CCOC(=O)c1ccc(-c2ccc(/C=N/N=C3\NC(=O)C(CC(=O)O)S3)o2)cc1` (stereo not drawn) [CBK264474], the viability at 28.5 h, 10 µM stood at 108%.
Same read-out and setting: in the case of `CN(C)S(=O)(=O)N1CCN(c2ccc([N+](=O)[O-])c(NC3CC3)c2)CC1` [CBK265158] it was 87%; in that of `CCC(CO)NC(=O)C1(Cc2ccc(-c3cc(C)cc(C)c3)cc2)CCOCC1` (stereo not drawn) [CBK286522], 90.8%.
Still for that read-out and setting: the figure for `O=C(O)c1ccc(-c2ccc(OC(F)(F)F)cc2)nc1` [CBK160173T] is 90.6%.
Same read-out and setting: the figure for `Cc1nn(C)cc1S(=O)(=O)N1CCC(c2cccc(Cc3ccccc3Cl)n2)CC1` [CBK286115] is 95.3%; for `CN(C)Cc1ccc(C(=O)N2CCc3[nH]c4ccccc4c3C2)cc1` [CBK281847] it is 82.9%; for `CCN1CCCCC1CNC(=O)c1cc(C2CC2)n[nH]1` (stereo not drawn) [CBK282205] it is 91.1%.
Consider `O=C(O)CNC(=O)[C@H]1CC[C@H](Cn2cnc3ccccc3c2=O)CC1` [CBK286714], for which the viability at 28.5 h, 10 µM turned out to be 97%.
Take `Cc1cc(NC(=O)Nc2cccc(Cl)c2C)no1` [CBK288245]: the viability at 28.5 h, 10 µM was determined as 87.3%.
Still for that read-out and setting: the figure for `O=CN1CCN(S(=O)(=O)c2ccc3c(c2)Cc2cc(S(=O)(=O)N4CCN(C=O)CC4)ccc2-3)CC1` [CBK264351] is 98.8%.
For `NS(=O)(=O)c1ccc(NC(=O)CCC(=O)O)cc1` [CBK261350], the viability at 28.5 h, 10 µM is 86.9%.
Consider `Cc1ccc(SCC(=O)NCCCN2CCOCC2)cc1` [CBK267678], for which the viability at 28.5 h, 10 µM is 99.3%.
Same read-out and setting: the figure for `Cn1ccc(C(=O)N2CCOC(c3nc(C(C)(C)C)n[nH]3)C2)cc1=O` (stereo not drawn) [CBK305201] is 106%; for `Cn1ncc(N2CCN(C(=O)CCCOc3ccccc3)CC2)cc1=O` [CBK306937] it is 84.2%; for `O=C(NCc1ccccc1)c1ccc(N2C(=O)CSC23C(=O)Nc2ccccc23)cc1` (stereo not drawn) [CBK093476] it is 109%.
Same read-out and setting: the figure for `CCOc1cc(C2Nc3ccccc3NC3=C2C(=O)C(C(=O)OC)C(C)C3)ccc1OC(C)C` (stereo not drawn) [CBK268456] is 111%; for `CCc1cc(S(=O)(=O)NC2CC(C)(C)NC(C)(C)C2)ccc1OC` [CBK270097] it is 92%.

For the origin of these results see article PMC12040169 (PLOS Biology, 2025).
